Source: PubChem BioAssay (NCI)
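These data come from cells grown in 96-well plates and exposed to compound for 48 hours at five concentrations. The concentration for full growth arrest is given as TGI.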

Assays:
Assay in all cases: DTP human tumour cell line panel, 48 h
DLD-1 colon = test system: DLD-1 colon
M19-MEL melanoma = test system: M19-MEL melanoma
SNB-78 CNS = test system: SNB-78 CNS
DMS 273 small cell lung = test system: DMS 273 small cell lung
LXFL 529 NSCLC = test system: LXFL 529 NSCLC
XF 498 CNS = test system: XF 498 CNS
DMS 114 small cell lung = test system: DMS 114 small cell lung
HOP-18 NSCLC = test system: HOP-18 NSCLC
RXF-631 renal = test system: RXF-631 renal

| Structure (SMILES) | TGI (DLD-1 colon) [µM] | TGI (M19-MEL melanoma) [µM] | TGI (SNB-78 CNS) [µM] | TGI (DMS 273 small cell lung) [µM] | TGI (LXFL 529 NSCLC) [µM] | TGI (XF 498 CNS) [µM] | TGI (DMS 114 small cell lung) [µM] | TGI (HOP-18 NSCLC) [µM] | TGI (RXF-631 renal) [µM] |
| --- | --- | --- | --- | --- | --- | --- | --- | --- | --- |
| CC(Oc1ccc(OCC2CCCCC2)cc1)C(N)=O (centres undefined) | > 100 | > 100 | > 100 | > 100 | > 100 | > 100 | > 100 | > 100 | – |
| CCCc1c[nH]c(-c2ccc(-c3cc(CCC)c(C=O)[nH]3)s2)c1 | 28.4 | 21.6 | 37.2 | 30.3 | 32.8 | 32.7 | 27.8 | 43 | – |
| CC1(C)CC(=O)C2=C(C1)S/C(=C1/SC3=C(S1)C(=O)CC(C)(C)C3)S2 | > 251 | > 251 | > 251 | > 251 | > 251 | > 251 | > 251 | > 251 | – |
| CC1(C)OC(C[C@]2(C#N)C[C@H](CCl)OC(C)(C)O2)C[C@@H](C[C@]2(C#N)C[C@H](CCl)OC(C)(C)O2)O1 (some centres undefined) | > 100 | > 100 | > 100 | > 100 | > 100 | > 100 | – | > 100 | – |
| O=C1CCCC/C1=C1\C(=O)Nc2cc(F)ccc21 | > 100 | > 100 | > 100 | > 100 | > 100 | > 100 | > 100 | > 100 | – |
| COc1ccc2c3c(n(Cc4ccccc4)c(=O)c2c1)-c1cc(OC)c(OC)cc1C3C (centres undefined) | > 100 | > 73.1 | > 100 | 38.6 | > 53 | 38 | > 89.2 | > 100 | > 100 |
| Cc1c(-c2nnc(-c3ccc(Cl)cc3)o2)c(=O)n(-c2ccccc2)n1C | > 100 | > 100 | > 100 | > 100 | > 100 | > 100 | > 100 | > 100 | – |
| CC(C)OC(=O)C1=C(O)c2ccccc2S(=O)(=O)N1 | > 100 | > 100 | > 100 | > 100 | > 100 | > 100 | – | > 100 | > 100 |
| COc1cc(-c2cc(=O)c3c(O)c(OC)c(OC)c(OC)c3o2)ccc1O | > 100 | > 100 | 70.1 | 30.5 | > 100 | – | 77.8 | > 100 | – |
| O=C(N/C(=C\c1cccc([N+](=O)[O-])c1)c1nc2[nH]c(=S)[nH]c(=O)c2[nH]1)c1ccccc1 | > 100 | > 100 | > 100 | – | > 100 | > 100 | > 100 | > 100 | > 100 |
